# Test results as given in US20230085307A1, “PYRIDAZINONE COMPOUND AND HERBICIDE” (NISSAN CHEMICAL CORPORATION, priority 2019, published 2023).
# Tested on: oval-leafed pondweed
# Assay: Test Example 1: herbicidal activity, application before weed generation under submerged conditions (Table 16, symbol C)
# Format: in vivo, oval-leafed pondweed (Monochoria vaginalis)
# Details: amount of applied herbicide 320 g/ha
# Method in brief: (§1)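 Emulsion formulation, water-diluted to set dose, was put onto the flooded surface (4 cm depth, alluvial soil) the same day weeds were sown and 2.5-leaf rice transplanted. After 3 weeks at 25-30 °C under glass, each species was rated 0 (≤5% kill) to 5 (≥90% kill).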
row,Structure (SMILES),"Herbicidal effect, C: oval-leafed pondweed"
1,COc1ccccc1-c1sc2cc(C)c(C)cc2c1-c1c(O)c(C)nn(C)c1=O [5-090],3 (Herbicidal rate of 40% or more and less than 70%)
2,CCCC(=O)Oc1c(C)nn(C)c(=O)c1-c1c(-c2ccccc2OCC)sc2cc(C)c(C)cc12 [5-095],4 (Herbicidal rate of 70% or more and less than 90%)

# Tested on: southern crabgrass
# Assay: Test Example 5: herbicidal effect by foliage application, plastic box (Table 20, symbol F)
# Format: in vivo, southern crabgrass (Digitaria ciliaris)
# Details: foliage application, 320 g/ha, three weeks after application
# Method in brief: (§2)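 Foliar spray test: emulsion formulation diluted in water to a set application rate, sprayed onto 14-day-old plants raised in diluvial soil at 25° C to 30° C under glass. Both herbicidal effect and crop effect rated visually three weeks later.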
row,Structure (SMILES),herbicidal effect on southern crabgrass (F)
1,COc1ccccc1-c1sc2cc(C)c(C)cc2c1-c1c(O)c(C)nn(C)c1=O [5-090],1 (Herbicidal rate of 5% or more and less than 20%)
2,CCCC(=O)Oc1c(C)nn(C)c(=O)c1-c1c(-c2ccccc2OCC)sc2cc(C)c(C)cc12 [5-095],5 (Herbicidal rate of 90% or more (almost completely withered))

# Tested on: windgrass
# Assay: Test Example 5: herbicidal effect by foliage application, plastic box (Table 20, symbol L)
# Format: in vivo, windgrass (Apera spica-venti)
# Details: foliage application, 320 g/ha, three weeks after application
# Method in brief: as §2
row,Structure (SMILES),herbicidal effect on windgrass (L)
1,COc1ccccc1-c1sc2cc(C)c(C)cc2c1-c1c(O)c(C)nn(C)c1=O [5-090],4 (Herbicidal rate of 70% or more and less than 90%)
2,CCCC(=O)Oc1c(C)nn(C)c(=O)c1-c1c(-c2ccccc2OCC)sc2cc(C)c(C)cc12 [5-095],4 (Herbicidal rate of 70% or more and less than 90%)

# Tested on: persian speedwell
# Assay: Test Example 5: herbicidal effect by foliage application, plastic box (Table 20, symbol R)
# Format: in vivo, Persian speedwell (Veronica persica)
# Details: foliage application, 320 g/ha, three weeks after application
# Method in brief: as §2
row,Structure (SMILES),herbicidal effect on persian speedwell (R)
1,COc1ccccc1-c1sc2cc(C)c(C)cc2c1-c1c(O)c(C)nn(C)c1=O [5-090],4 (Herbicidal rate of 70% or more and less than 90%)
2,CCCC(=O)Oc1c(C)nn(C)c(=O)c1-c1c(-c2ccccc2OCC)sc2cc(C)c(C)cc12 [5-095],5 (Herbicidal rate of 90% or more (almost completely withered))

# Tested on: green foxtail
# Assay: Test Example 4: herbicidal effect by soil treatment (Table 19, symbol G)
# Format: in vivo, green foxtail (Setaria viridis)
# Details: amount of applied herbicide 320 g/ha
# Method in brief: (§3)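 Step 1: sow seeds in sterilized diluvial soil, cover ~1.5 cm. Step 2: spray diluted emulsion onto soil surface at predetermined rate. Step 3: greenhouse, 25–30° C, three weeks. Step 4: grade effect on each plant by earlier criteria.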
row,Structure (SMILES),"G: green foxtail, herbicidal effect grade"
1,COc1ccccc1-c1sc2cc(C)c(C)cc2c1-c1c(O)c(C)nn(C)c1=O [5-090],0 (Herbicidal rate of 5% or less (almost no effect))
2,CCCC(=O)Oc1c(C)nn(C)c(=O)c1-c1c(-c2ccccc2OCC)sc2cc(C)c(C)cc12 [5-095],0 (Herbicidal rate of 5% or less (almost no effect))

# Tested on: rice flat sedge
# Assay: Test Example 3: herbicidal effect by foliage application, Wagner pot (Table 18, symbol E)
# Format: in vivo, rice flat sedge (Cyperus iria)
# Details: 320 g/ha
# Method in brief: (§4)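 Plants were sown in alluvial soil held under 0.1–0.5 cm standing water and grown 14 days in a greenhouse at 25–30 °C. An emulsifiable formulation, water-diluted to the set dose, was then sprayed onto the foliage, and effects were scored three weeks later using previously defined criteria.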
row,Structure (SMILES),herbicidal effect on rice flat sedge (E)
1,COc1ccccc1-c1sc2cc(C)c(C)cc2c1-c1c(O)c(C)nn(C)c1=O [5-090],5 (Herbicidal rate of 90% or more (almost completely withered))
2,CCCC(=O)Oc1c(C)nn(C)c(=O)c1-c1c(-c2ccccc2OCC)sc2cc(C)c(C)cc12 [5-095],4 (Herbicidal rate of 70% or more and less than 90%)

# Tested on: Japanese bulrush
# Assay: Test Example 1: herbicidal activity, application before weed generation under submerged conditions (Table 16, symbol B)
# Format: in vivo, Japanese bulrush (Schoenoplectus juncoides)
# Details: amount of applied herbicide 320 g/ha
# Method in brief: as §1
row,Structure (SMILES),"Herbicidal effect, B: Japanese bulrush"
1,COc1ccccc1-c1sc2cc(C)c(C)cc2c1-c1c(O)c(C)nn(C)c1=O [5-090],3 (Herbicidal rate of 40% or more and less than 70%)
2,CCCC(=O)Oc1c(C)nn(C)c(=O)c1-c1c(-c2ccccc2OCC)sc2cc(C)c(C)cc12 [5-095],4 (Herbicidal rate of 70% or more and less than 90%)

# Tested on: wild oat
# Assay: Test Example 4: herbicidal effect by soil treatment (Table 19, symbol I)
# Format: in vivo, wild oat (Avena fatua)
# Details: amount of applied herbicide 320 g/ha
# Method in brief: as §3
row,Structure (SMILES),"I: wild oat, herbicidal effect grade"
1,COc1ccccc1-c1sc2cc(C)c(C)cc2c1-c1c(O)c(C)nn(C)c1=O [5-090],0 (Herbicidal rate of 5% or less (almost no effect))
2,CCCC(=O)Oc1c(C)nn(C)c(=O)c1-c1c(-c2ccccc2OCC)sc2cc(C)c(C)cc12 [5-095],0 (Herbicidal rate of 5% or less (almost no effect))

# Tested on: windgrass
# Assay: Test Example 4: herbicidal effect by soil treatment (Table 19, symbol L)
# Format: in vivo, windgrass (Apera spica-venti)
# Details: amount of applied herbicide 320 g/ha
# Method in brief: as §3
row,Structure (SMILES),"L: windgrass, herbicidal effect grade"
1,COc1ccccc1-c1sc2cc(C)c(C)cc2c1-c1c(O)c(C)nn(C)c1=O [5-090],3 (Herbicidal rate of 40% or more and less than 70%)
2,CCCC(=O)Oc1c(C)nn(C)c(=O)c1-c1c(-c2ccccc2OCC)sc2cc(C)c(C)cc12 [5-095],0 (Herbicidal rate of 5% or less (almost no effect))

# Tested on: chickweed
# Assay: Test Example 4: herbicidal effect by soil treatment (Table 19, symbol P)
# Format: in vivo, common chickweed (Stellaria media)
# Details: amount of applied herbicide 320 g/ha
# Method in brief: as §3
row,Structure (SMILES),"P: chickweed, herbicidal effect grade"
1,COc1ccccc1-c1sc2cc(C)c(C)cc2c1-c1c(O)c(C)nn(C)c1=O [5-090],1 (Herbicidal rate of 5% or more and less than 20%)
2,CCCC(=O)Oc1c(C)nn(C)c(=O)c1-c1c(-c2ccccc2OCC)sc2cc(C)c(C)cc12 [5-095],3 (Herbicidal rate of 40% or more and less than 70%)

# Tested on: Italian ryegrass
# Assay: Test Example 4: herbicidal effect by soil treatment (Table 19, symbol K)
# Format: in vivo, Italian ryegrass (Lolium multiflorum)
# Details: amount of applied herbicide 320 g/ha
# Method in brief: as §3
row,Structure (SMILES),"K: Italian ryegrass, herbicidal effect grade"
1,COc1ccccc1-c1sc2cc(C)c(C)cc2c1-c1c(O)c(C)nn(C)c1=O [5-090],5 (Herbicidal rate of 90% or more (almost completely withered))
2,CCCC(=O)Oc1c(C)nn(C)c(=O)c1-c1c(-c2ccccc2OCC)sc2cc(C)c(C)cc12 [5-095],0 (Herbicidal rate of 5% or less (almost no effect))

# Tested on: redroot pigweed
# Assay: Test Example 4: herbicidal effect by soil treatment (Table 19, symbol N)
# Format: in vivo, redroot pigweed (Amaranthus retroflexus)
# Details: amount of applied herbicide 320 g/ha
# Method in brief: as §3
row,Structure (SMILES),"N: redroot pigweed, herbicidal effect grade"
1,COc1ccccc1-c1sc2cc(C)c(C)cc2c1-c1c(O)c(C)nn(C)c1=O [5-090],0 (Herbicidal rate of 5% or less (almost no effect))
2,CCCC(=O)Oc1c(C)nn(C)c(=O)c1-c1c(-c2ccccc2OCC)sc2cc(C)c(C)cc12 [5-095],0 (Herbicidal rate of 5% or less (almost no effect))

# Tested on: Japanese bulrush
# Assay: Test Example 2: herbicidal activity, application during weed generation under submerged conditions (Table 17, symbol B)
# Format: in vivo, Japanese bulrush (Schoenoplectus juncoides)
# Details: AAH 320 g/ha; application during weed generation, submerged conditions
# Method in brief: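 Mixed weed seedlings in alluvial soil under a 4 cm water layer, greenhouse-grown at 25–30° C. Compound given as a diluted emulsion into the floodwater at the 1–2 leaf stage; response graded after three weeks.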
row,Structure (SMILES),"herbicidal effect rating, B: Japanese bulrush"
1,COc1ccccc1-c1sc2cc(C)c(C)cc2c1-c1c(O)c(C)nn(C)c1=O [5-090],2 (Herbicidal rate of 20% or more and less than 40%)
2,CCCC(=O)Oc1c(C)nn(C)c(=O)c1-c1c(-c2ccccc2OCC)sc2cc(C)c(C)cc12 [5-095],4 (Herbicidal rate of 70% or more and less than 90%)

# Tested on: lambsquarters
# Assay: Test Example 5: herbicidal effect by foliage application, plastic box (Table 20, symbol O)
# Format: in vivo, lambsquarters (Chenopodium album)
# Details: foliage application, 320 g/ha, three weeks after application
# Method in brief: as §2
row,Structure (SMILES),herbicidal effect on lambsquarters (O)
1,COc1ccccc1-c1sc2cc(C)c(C)cc2c1-c1c(O)c(C)nn(C)c1=O [5-090],4 (Herbicidal rate of 70% or more and less than 90%)
2,CCCC(=O)Oc1c(C)nn(C)c(=O)c1-c1c(-c2ccccc2OCC)sc2cc(C)c(C)cc12 [5-095],3 (Herbicidal rate of 40% or more and less than 70%)

# Tested on: wild oat
# Assay: Test Example 5: herbicidal effect by foliage application, plastic box (Table 20, symbol I)
# Format: in vivo, wild oat (Avena fatua)
# Details: foliage application, 320 g/ha, three weeks after application
# Method in brief: as §2
row,Structure (SMILES),herbicidal effect on wild oat (I)
1,COc1ccccc1-c1sc2cc(C)c(C)cc2c1-c1c(O)c(C)nn(C)c1=O [5-090],0 (Herbicidal rate of 5% or less (almost no effect))
2,CCCC(=O)Oc1c(C)nn(C)c(=O)c1-c1c(-c2ccccc2OCC)sc2cc(C)c(C)cc12 [5-095],3 (Herbicidal rate of 40% or more and less than 70%)

# Tested on: Chinese sprangletop
# Assay: Test Example 3: herbicidal effect by foliage application, Wagner pot (Table 18, symbol D)
# Format: in vivo, chinese sprangletop (Leptochloa chinensis)
# Details: 320 g/ha
# Method in brief: as §4
row,Structure (SMILES),herbicidal effect on Chinese sprangletop (D)
1,COc1ccccc1-c1sc2cc(C)c(C)cc2c1-c1c(O)c(C)nn(C)c1=O [5-090],2 (Herbicidal rate of 20% or more and less than 40%)
2,CCCC(=O)Oc1c(C)nn(C)c(=O)c1-c1c(-c2ccccc2OCC)sc2cc(C)c(C)cc12 [5-095],5 (Herbicidal rate of 90% or more (almost completely withered))
